From ChEMBL document CHEMBL1147073, “Signal peptide peptidase and gamma-secretase share equivalent inhibitor binding pharmacology” (J Biol Chem, 2007)
Calls of active or inactive are those of the source. The rule behind the calls is not given here.

Columns and labels:
Type in all cases: cell-based
[1] = Displacement of [3H]L685458 from human SPP expressed in HEK293 cells
Gamma-secretase [2] = test: Displacement of [3H]L685458 from gamma-secretase in human THP1 cells; conditions: thp-1
Gamma-secretase [3] = test: Displacement of [3H]IN973 from gamma-secretase in human THP1 cells; conditions: thp-1
HEK293 = test: Inhibition of SPP expressed in HEK293 cells at 10 uM in presence of Prl-PP peptide after 30 mins
[4] = Inhibition of SPP expressed in HEK293 cells in presence of Prl-PP peptide after 30 mins

SMILES | IC50 [1] | IC50 (Gamma-secretase [2]) | IC50 (Gamma-secretase [3]) | IC50 [4] | Activity (HEK293)
CSc1ccc(/C=C2/C(C)=C(CC(=O)O)c3cc(F)ccc32)cc1 [SULINDAC SULFIDE] | 45.2 µM | 57100 nM | 332000 nM | – | –
CCC[C@H](C(N)=O)[C@@H](CC(C)C)C(=O)N[C@H]1N=C(c2ccccc2)c2ccccc2N(C)C1=O | 0.56 µM | – | – | – | inactive
C[C@H](NC(=O)Cc1cc(F)cc(F)c1)C(=O)N[C@H](C(=O)OC(C)(C)C)c1ccccc1 | 34.2 µM | > 100000 nM | 6.3 nM | – | inactive
C[C@H](c1ccc(F)cc1CCCC(=O)O)N(c1cc(F)ccc1F)S(=O)(=O)c1ccc(Cl)cc1 | 28.7 µM | 25600 nM | 12 nM | – | inactive
C[C@H](NC(=O)[C@@H](O)c1cc(F)cc(F)c1)C(=O)N[C@@H]1C(=O)N(C)N=Cc2ccccc21 | – | 510 nM | 1.2 nM | – | inactive

Second part, led by results:

IC50 [1] | IC50 (Gamma-secretase [2]) | IC50 (Gamma-secretase [3]) | IC50 [4] | SMILES | Activity (HEK293)
0.01 µM | 4.3 nM | 72 nM | 10 µM | CC(C)C[C@H](NC(=O)[C@H](Cc1ccccc1)C[C@@H](O)[C@H](Cc1ccccc1)NC(=O)OC(C)(C)C)C(=O)N[C@@H](Cc1ccccc1)C(N)=O | –
0.0053 µM | 8.7 nM | 2060 nM | 2 µM | CC(C)C[C@H](NC(=O)OCc1ccccc1)C(=O)N[C@@H](CC(C)C)C(=O)NCC(=O)CNC(=O)[C@H](CC(C)C)NC(=O)[C@H](CC(C)C)NC(=O)OCc1ccccc1 | –
